In US20230066946A1, “1,5-DIPHENYLPYRAZOLYL-3-OXYALKYL ACIDS AND 1-PHENYL-5-THIENYLPYRAZOLYL-3-OXYALKYL ACIDS AND THE USE THEREOF FOR CONTROL OF UNWANTED PLANT GROWTH” (Bayer Aktiengesellschaft, priority 2019, published 2023):

Columns and labels:
SETVI = assay: Pre-emergence herbicidal action against SETVI; type: in vivo, Setaria viridis; details: 1280 g/ha, scored visually after about 3 weeks vs untreated controls
Text: (§1) Seeds of mono- and dicotyledonous weed plants are placed in plastic pots in sandy loam soil (doubly sown with one species each of mono- or dicotyledonous weed plants per pot) and covered with soil. The compounds of the invention, formulated in the form of wettable powders (WP) or as emulsion concentrates (EC), are then applied onto the surface of the covering soil as aqueous suspension or emulsion with addition of 0.5% additive at a water application rate equivalent to 600 litres per hectare. After the treatment, the pots are placed in a greenhouse and kept under good growth conditions for the trial plants. After about 3 weeks, the effect of the preparations is scored visually in comparison with untreated controls as percentages. For example, 100% activity=the plants have died, 0% activity=like control plants. [table] Tables 4.1-4.15 below show the effects of selected compounds of the general formula (I) according to Tables 1 to 3 on various harmful plants at an application rate corresponding to 1280 or 320 g/ha, which have been obtained by the aforementioned experimental method.

AMARE [1] = assay: Pre-emergence herbicidal action against AMARE; type: in vivo, Amaranthus retroflexus; details: 1280 g/ha, scored visually after about 3 weeks vs untreated controls
Text: as §1

STEME [2] = assay: Pre-emergence herbicidal action against STEME; type: in vivo, Stellaria media; details: 1280 g/ha, scored visually after about 3 weeks vs untreated controls
Text: as §1

AMARE [3] = assay: Post-emergence herbicidal action against AMARE; type: in vivo, Amaranthus retroflexus; details: 1280 g/ha, visual rating about 3 weeks after treatment
Protocol: (§2) [table] Seeds of mono- and dicotyledonous weed plants are placed in plastic pots in sandy loam soil (twin sowing with one species each of mono- or dicotyledonous weed plants per pot), covered with soil and cultivated in a greenhouse under controlled growth conditions. 2 to 3 weeks after sowing, the test plants are treated at the one-leaf stage. The compounds of the invention, formulated in the form of wettable powders (WP) or as emulsion concentrates (EC), are applied to the green parts of the plants as aqueous suspension or emulsion with addition of 0.5% additive at a water application rate equivalent to 600 litres per hectare. After the test plants have been kept in the greenhouse under optimum growth conditions for about 3 weeks, the activity of the preparations is rated visually in comparison to untreated controls. For example, 100% activity=the plants have died, 0% activity=like control plants. Tables 5.1-5.16 below show the effects of selected compounds of the general formula (I) according to Tables 1 to 3 on various harmful plants at an application rate corresponding to 1280 or 320 g/ha, which have been obtained by the aforementioned experimental method.

MATIN = assay: Post-emergence herbicidal action against MATIN; type: in vivo, Matricaria inodora; details: 1280 g/ha, visual rating about 3 weeks after treatment
Protocol: as §2

STEME [4] = assay: Post-emergence herbicidal action against STEME; type: in vivo, Stellaria media; details: 1280 g/ha, visual rating about 3 weeks after treatment
Protocol: as §2

SMILES	Pre-emergence action against SETVI in % (SETVI) [%]	Pre-emergence action against AMARE in % (AMARE [1]) [%]	Pre-emergence action against STEME in % (STEME [2]) [%]	Post-emergence action against AMARE in % (AMARE [3]) [%]	Post-emergence action against MATIN in % (MATIN) [%]	Post-emergence action against STEME in % (STEME [4]) [%]
CCOC(=O)COc1nn(-c2ccc(Cl)cc2F)c(-c2ccc(F)cc2)c1Br [I-156]	90	100	100	100	90	–
O=C(COc1nn(-c2ccc(F)cc2)c(-c2cccc(F)c2)c1I)OCc1ccccc1 [I-124]	100	–	100	–	90	–
COC(=O)C(C)Oc1nn(-c2ccccc2)c(-c2ccc(F)cc2)c1Br (stereo not shown) [I-132, Methyl 2-{[4-bromo-5-(4-fluorophenyl)-1-phenyl-1H-pyrazol-3-yl]oxy}propanoate]	100	100	100	–	90	100
COC(=O)C(C)Oc1nn(-c2ccccc2)c(-c2ccccc2F)c1Cl (stereo not shown) [I-166]	90	90	90	100	100	–
O=C(O)COc1nn(-c2cccc(F)c2)c(-c2ccccc2)c1[N+](=O)[O-] [I-129]	100	100	100	100	100	–
CCOC(=O)COc1nn(-c2ccccc2OC)c(-c2ccccc2)c1Br [I-092]	100	100	100	100	–	–
COC(=O)COc1nn(-c2ccccc2F)c(-c2ccc(F)s2)c1Cl [I-094, Methyl {[4-chloro-1-(2-fluorophenyl)-5-(5-fluoro-2-thienyl)-1H-pyrazol-3-yl]oxy}acetate]	100	100	100	100	–	–
O=C(COc1nn(-c2ccc(F)cc2)c(-c2cccc(F)c2)c1Br)NC1CC1 [III-018]	90	90	100	100	–	–
O=C(O)COc1nn(-c2cccc(F)c2)c(-c2ccccc2)c1Br [I-127]	100	100	100	90	90	–
CCOC(=O)COc1nn(-c2ccc(F)cc2)c(-c2ccc(F)cc2F)c1Br [I-086]	90	100	90	100	–	–
COC(=O)CNC(=O)C(C)Oc1nn(-c2ccccc2)c(-c2ccc(F)cc2)c1Br (stereo not shown) [III-056, Methyl N-(2-{[4-bromo-5-(4-fluorophenyl)-1-phenyl-1H-pyrazol-3-yl]oxy}propanoyl)glycinate]	90	100	100	–	90	–
COC(=O)C(C)Oc1nn(-c2ccccc2F)c(-c2ccc(F)c(F)c2)c1Br (stereo not shown) [I-170]	100	100	100	90	–	100
COC(=O)COc1nn(-c2ccccc2F)c(-c2ccc(F)s2)c1Br [I-095]	100	100	100	100	100	–
